Data from patent US20070207989A1, “DITERPENE DERIVATIVES FOR THE TREATMENT OF CARDIOVASCULAR, CANCER AND INFLAMMATORY DISEASES” (SaviPu Pharmaceuticals, priority 2006, published 2007).

Experiments:
endothelin receptor = conditions: cited from earlier work
ETA receptor = biological target: T1, ETA receptor (Homo sapiens, UniProt P25101); conditions: cited from earlier work
T1 sequence (P25101 21-427): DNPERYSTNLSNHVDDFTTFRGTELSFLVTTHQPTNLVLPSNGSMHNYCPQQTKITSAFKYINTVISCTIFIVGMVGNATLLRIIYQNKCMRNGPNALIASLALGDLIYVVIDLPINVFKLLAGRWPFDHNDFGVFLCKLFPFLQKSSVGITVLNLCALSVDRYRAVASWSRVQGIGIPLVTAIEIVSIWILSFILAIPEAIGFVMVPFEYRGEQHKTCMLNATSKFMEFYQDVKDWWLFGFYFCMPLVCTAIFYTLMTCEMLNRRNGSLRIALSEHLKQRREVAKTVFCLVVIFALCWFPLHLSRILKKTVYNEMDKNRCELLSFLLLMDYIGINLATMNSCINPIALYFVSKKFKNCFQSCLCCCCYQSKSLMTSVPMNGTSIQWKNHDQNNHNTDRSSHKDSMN

ETB receptor = biological target: T2, ETB receptor (Homo sapiens, UniProt P24530); conditions: cited from earlier work
T2 sequence (P24530 27-442): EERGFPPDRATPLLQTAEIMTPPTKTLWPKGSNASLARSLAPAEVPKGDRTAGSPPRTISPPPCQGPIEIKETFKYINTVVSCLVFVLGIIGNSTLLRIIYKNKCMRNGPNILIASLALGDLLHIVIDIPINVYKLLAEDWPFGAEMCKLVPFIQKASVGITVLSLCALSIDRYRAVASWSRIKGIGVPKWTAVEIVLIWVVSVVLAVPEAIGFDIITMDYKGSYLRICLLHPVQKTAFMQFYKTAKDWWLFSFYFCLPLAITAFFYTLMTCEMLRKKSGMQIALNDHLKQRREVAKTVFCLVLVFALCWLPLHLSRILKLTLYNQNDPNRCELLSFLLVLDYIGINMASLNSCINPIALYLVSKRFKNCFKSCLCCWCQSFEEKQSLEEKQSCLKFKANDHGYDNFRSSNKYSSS

tumor cell lines = assay: inhibition of tumor cell lines; format: cell-based
NF-κB [1] = conditions: cited from earlier work
NF-κB [2] = assay: inhibition of NF-κB / NF-κB binding to κB consensus DNA
[3] = biological target: T3, endothelin receptor A (ETA) (Homo sapiens, UniProt P25101); assay: inhibition of endothelin receptor A (ETA)
T3 sequence (P25101 21-427): T1 sequence (P25101 21-427)

carcinoma cell lines = conditions: four cell lines; cited from earlier work
human cancer cell lines = conditions: cited from earlier work

Q: For `Cc1noc(NS(=O)(=O)c2cccc3c(N(C)C)cccc23)c1C` [BMS-1 82874], which “endothelin receptor antagonist activity / binding (in words)” value (endothelin receptor) is on record?
A: active

Q: For `COc1cccc(Oc2c(NS(=O)(=O)c3ccc(C(C)(C)C)cc3)ncnc2OCCO)c1` [Ro-46-2005], which “endothelin receptor antagonist activity / binding (in words)” value (endothelin receptor) is on record?
A: orally active non-peptidic antagonist

Q: With `CCCOc1ccc2c(c1)[C@@H](c1ccc(OC)cc1OCC(=O)O)[C@H](C(=O)O)[C@H]2c1ccc2c(c1)OCO2` [SB-209670] as the molecule, how does the “affinity for ETA receptor (concentration range in words)” value (ETA receptor) read?
A: subnanomolar

Q: What about the “affinity for ETB receptor (concentration range in words)” value (ETB receptor) of the same molecule?
A: nanomolar

Q: For `Cc1coc2c1C(=O)C(=O)c1c-2ccc2c1CCCC2(C)C` [compound 8, tanshinone IIA], which “inhibition of tumor cell lines” value (tumor cell lines) is on record?
A: modest inhibition

Q: What about the “blocking of NFκB binding to κB consensus DNA” value (NF-κB [1]) of the same molecule?
A: block NFκB from binding to κB consensus DNA

Q: What about the “inhibition of NF-κB” value (NF-κB [2]) of the same molecule?
A: modest inhibition

Q: What about the “inhibition of endothelin receptor A (ETA)” value [3] of the same molecule?
A: modest inhibition

Q: What about the “potency against carcinoma cell lines (in words)” value (“potency … (in words)” for short) (carcinoma cell lines) of the same molecule?
A: lack significant activity

Q: For `C=C1CCCc2c1ccc1c2C(=O)C(=O)c2c(C)coc2-1` [compound 9, methylene tanshinquinone], which “potency … (in words)” value (carcinoma cell lines) is on record?
A: more potent than any of the tanshindiols

Q: With `COC(=O)[C@@]1(C)CCCc2c1ccc1c2C(=O)C(=O)c2c(C)coc2-1` [compound 10, methyl tanshinonate] as the molecule, how does the “potency … (in words)” value (carcinoma cell lines) read?
A: equally potent as the tanshindiols

Q: For `Cc1coc2c1C(=O)C(=O)c1c-2ccc2c1CCCC2(C)CO` (centres unmarked) [compound 11, tanshinone IIB], which “potency … (in words)” value (carcinoma cell lines) is on record?
A: very little activity

Q: For `Cc1cccc2c1ccc1c3occ(C)c3c(=O)oc21` [compound 20, neo-tanshinlactone], which “potency relative to tamoxifen citrate” value (human cancer cell lines; breast cancer, in some cases) is on record?
A: ten times more potent

Q: What about the “selectivity relative to tamoxifen citrate” value (human cancer cell lines; breast cancer, in some cases) of the same molecule?
A: twenty times more selective

Q: What about the “effectiveness against human cancer cell lines” value (human cancer cell lines; several human cancer cell lines, particularly breast cancer) of the same molecule?
A: very effective

Q: For `COc1cc(OC)nc(O[C@H](C(=O)O)C(OC)(c2ccccc2)c2ccccc2)n1` [darusentan], which “endothelin receptor antagonist activity / binding (in words)” value (endothelin receptor) is on record?
A: effective endothelin receptor antagonists

Q: With `Cc1coc2c1C(=O)C(=O)c1c-2ccc2c(C)cccc12` [tanshinone 17] as the molecule, how does the “potency … (in words)” value (carcinoma cell lines) read?
A: lack significant activity
